These results are taken from ChEMBL document CHEMBL5649166, “RIP3 induces apoptosis independent of pronecrotic kinase activity” (Mol Cell, 2014).

Experiment [1] concerns the target Serine/threonine-protein kinase pim-1 (Homo sapiens) (UniProt P11309). As to the kind of experiment: Inhibition of human PIM1 using RSRHSSYPAGT as substrate at 1 uM in presence of 32P-ATP by Hotspot assay relative to control; values are per cent of control.
Experiment [2] addresses Dual specificity tyrosine-phosphorylation-regulated kinase 1B (Homo sapiens) (UniProt Q9Y463). In words: Inhibition of human DYRK1B using RRRFRPASPLRGPPK as substrate at 1 uM in presence of 32P-ATP by Hotspot assay relative to control; values are per cent of control.
Experiment [3] addresses Serine/threonine-protein kinase PAK 4 (Homo sapiens) (UniProt O96013). In words: Inhibition of human PAK4 using RRRLSFAEPG as substrate at 1 uM in presence of 32P-ATP by Hotspot assay relative to control; values are per cent of control.
Experiment [4] concerns the target Mitogen-activated protein kinase 1 (Homo sapiens) (UniProt P28482). In words: Inhibition of human ERK2/MAPK1 using myelin basic protein as substrate at 1 uM in presence of 32P-ATP by Hotspot assay relative to control; values are per cent of control.
In experiment [5] the target is Protein kinase C beta type (Homo sapiens) (UniProt P05771). As to the kind of experiment: Inhibition of human PKCb2 using ERMRPRKRQGSVRRRV as substrate at 1 uM in presence of 32P-ATP by Hotspot assay relative to control; values are per cent of control.
Sequence of Protein kinase C beta type (Homo sapiens) (P05771 2-671 limits assumed): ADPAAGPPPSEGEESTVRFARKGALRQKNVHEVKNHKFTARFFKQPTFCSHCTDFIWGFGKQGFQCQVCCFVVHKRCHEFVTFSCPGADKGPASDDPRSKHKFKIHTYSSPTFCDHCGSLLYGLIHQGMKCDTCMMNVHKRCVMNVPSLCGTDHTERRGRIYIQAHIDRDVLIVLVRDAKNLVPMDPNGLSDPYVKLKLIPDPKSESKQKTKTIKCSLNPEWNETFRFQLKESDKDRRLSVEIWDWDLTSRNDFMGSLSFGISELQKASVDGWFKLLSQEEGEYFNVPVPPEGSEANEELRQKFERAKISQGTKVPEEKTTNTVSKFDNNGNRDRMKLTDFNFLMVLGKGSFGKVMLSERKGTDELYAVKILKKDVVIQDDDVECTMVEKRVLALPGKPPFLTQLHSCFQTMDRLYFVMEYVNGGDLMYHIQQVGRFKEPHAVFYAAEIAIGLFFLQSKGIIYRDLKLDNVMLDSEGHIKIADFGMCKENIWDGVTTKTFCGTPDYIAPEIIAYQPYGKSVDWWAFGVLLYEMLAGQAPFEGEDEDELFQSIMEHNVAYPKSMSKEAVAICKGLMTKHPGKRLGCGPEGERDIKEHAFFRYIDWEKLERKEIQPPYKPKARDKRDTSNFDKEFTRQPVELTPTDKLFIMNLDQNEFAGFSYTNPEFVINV
In experiment [6] the target is Fibroblast growth factor receptor 1 (Homo sapiens) (UniProt P11362). As to the kind of experiment: Inhibition of human FGFR1 using poly[Glu:Tyr] (4:1) as substrate at 1 uM in presence of 32P-ATP by Hotspot assay relative to control; values are per cent of control.
Sequence of Fibroblast growth factor receptor 1 (Homo sapiens) (P11362 22-822 limits assumed): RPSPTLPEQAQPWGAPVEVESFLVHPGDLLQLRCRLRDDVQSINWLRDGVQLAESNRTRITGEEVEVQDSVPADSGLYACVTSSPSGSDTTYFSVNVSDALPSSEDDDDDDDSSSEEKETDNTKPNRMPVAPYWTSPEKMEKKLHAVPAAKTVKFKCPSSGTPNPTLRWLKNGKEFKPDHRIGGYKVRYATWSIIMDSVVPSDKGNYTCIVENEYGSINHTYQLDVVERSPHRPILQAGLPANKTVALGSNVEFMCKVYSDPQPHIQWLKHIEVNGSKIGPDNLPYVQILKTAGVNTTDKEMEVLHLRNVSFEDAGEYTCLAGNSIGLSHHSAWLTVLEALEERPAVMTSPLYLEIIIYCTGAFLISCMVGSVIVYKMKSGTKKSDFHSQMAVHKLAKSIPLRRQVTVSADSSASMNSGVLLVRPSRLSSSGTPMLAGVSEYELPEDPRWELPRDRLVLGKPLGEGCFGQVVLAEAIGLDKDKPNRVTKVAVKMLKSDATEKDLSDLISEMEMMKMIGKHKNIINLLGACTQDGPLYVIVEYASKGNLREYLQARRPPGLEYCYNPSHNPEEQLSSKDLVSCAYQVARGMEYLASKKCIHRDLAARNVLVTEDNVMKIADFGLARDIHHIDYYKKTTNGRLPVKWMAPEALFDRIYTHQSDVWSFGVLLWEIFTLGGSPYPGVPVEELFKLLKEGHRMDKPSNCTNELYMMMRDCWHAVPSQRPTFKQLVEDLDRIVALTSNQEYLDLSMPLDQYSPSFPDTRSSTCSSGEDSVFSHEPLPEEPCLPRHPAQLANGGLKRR
Experiment [7] has as its target T1, Muscle, skeletal receptor tyrosine-protein kinase (Homo sapiens) (UniProt O15146).
T1 sequence (whole entry): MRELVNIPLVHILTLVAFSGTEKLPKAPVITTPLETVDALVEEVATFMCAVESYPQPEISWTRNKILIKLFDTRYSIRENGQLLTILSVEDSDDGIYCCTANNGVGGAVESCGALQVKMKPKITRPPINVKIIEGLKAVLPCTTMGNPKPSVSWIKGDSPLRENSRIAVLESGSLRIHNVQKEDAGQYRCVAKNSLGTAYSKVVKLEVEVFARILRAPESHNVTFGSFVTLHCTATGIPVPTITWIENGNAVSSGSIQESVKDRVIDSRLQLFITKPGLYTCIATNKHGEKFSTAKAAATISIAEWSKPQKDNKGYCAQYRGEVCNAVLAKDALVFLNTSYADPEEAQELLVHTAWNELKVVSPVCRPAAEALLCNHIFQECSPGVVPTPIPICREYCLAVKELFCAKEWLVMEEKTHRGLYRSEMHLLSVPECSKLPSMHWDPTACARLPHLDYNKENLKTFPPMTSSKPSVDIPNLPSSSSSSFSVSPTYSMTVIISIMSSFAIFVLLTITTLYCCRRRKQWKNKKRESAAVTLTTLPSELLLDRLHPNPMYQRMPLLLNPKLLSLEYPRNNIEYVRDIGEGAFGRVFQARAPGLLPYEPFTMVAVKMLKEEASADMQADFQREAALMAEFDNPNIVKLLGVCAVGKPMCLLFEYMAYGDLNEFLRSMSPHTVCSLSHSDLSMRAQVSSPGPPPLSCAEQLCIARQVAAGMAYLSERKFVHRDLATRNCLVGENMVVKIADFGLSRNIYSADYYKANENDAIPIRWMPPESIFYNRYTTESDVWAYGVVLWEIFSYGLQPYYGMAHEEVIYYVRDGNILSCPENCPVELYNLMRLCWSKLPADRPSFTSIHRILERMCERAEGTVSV
In words: Inhibition of human MUSK using myelin basic protein as substrate at 1 uM in presence of 32P-ATP by Hotspot assay relative to control; values are per cent of control.

Experiment [8] deals with Protein-tyrosine kinase 2-beta (Homo sapiens) (UniProt Q14289). As to the kind of experiment: Inhibition of human PYK2 using poly[Glu:Tyr] (4:1) as substrate at 1 uM in presence of 32P-ATP by Hotspot assay relative to control; values are per cent of control.
Sequence of Protein-tyrosine kinase 2-beta (Homo sapiens) (Q14289 whole entry, looked up): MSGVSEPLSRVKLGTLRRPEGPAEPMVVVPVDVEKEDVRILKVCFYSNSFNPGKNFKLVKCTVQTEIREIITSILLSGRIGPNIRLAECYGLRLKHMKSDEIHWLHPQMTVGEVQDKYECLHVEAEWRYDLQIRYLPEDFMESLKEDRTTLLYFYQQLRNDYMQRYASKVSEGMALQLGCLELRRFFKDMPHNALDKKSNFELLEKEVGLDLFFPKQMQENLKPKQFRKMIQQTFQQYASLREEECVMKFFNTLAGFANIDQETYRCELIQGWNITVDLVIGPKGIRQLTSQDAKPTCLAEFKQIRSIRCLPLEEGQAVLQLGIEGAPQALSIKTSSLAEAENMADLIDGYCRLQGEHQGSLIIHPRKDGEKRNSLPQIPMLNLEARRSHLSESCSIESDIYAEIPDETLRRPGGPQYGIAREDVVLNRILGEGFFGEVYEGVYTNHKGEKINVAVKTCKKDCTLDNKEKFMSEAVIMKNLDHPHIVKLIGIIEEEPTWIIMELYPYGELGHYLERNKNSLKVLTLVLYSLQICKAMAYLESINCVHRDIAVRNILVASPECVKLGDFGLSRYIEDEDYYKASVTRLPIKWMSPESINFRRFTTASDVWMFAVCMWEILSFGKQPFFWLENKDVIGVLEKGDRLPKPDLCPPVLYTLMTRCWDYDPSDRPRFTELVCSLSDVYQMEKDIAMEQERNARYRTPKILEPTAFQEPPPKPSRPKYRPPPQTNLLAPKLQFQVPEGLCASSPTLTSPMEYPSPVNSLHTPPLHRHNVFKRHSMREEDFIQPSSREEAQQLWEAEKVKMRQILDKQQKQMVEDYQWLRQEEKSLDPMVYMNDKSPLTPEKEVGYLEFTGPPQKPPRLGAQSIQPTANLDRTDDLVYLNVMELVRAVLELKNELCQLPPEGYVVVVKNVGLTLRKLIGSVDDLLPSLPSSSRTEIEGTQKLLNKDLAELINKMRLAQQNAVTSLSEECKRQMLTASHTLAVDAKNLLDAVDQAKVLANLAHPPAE
Experiment [9] deals with Serine/threonine-protein kinase Nek7 (Homo sapiens) (UniProt Q8TDX7). As to the kind of experiment: Inhibition of human NEK7 using casein as substrate at 1 uM in presence of 32P-ATP by Hotspot assay relative to control; values are per cent of control.
Sequence of Serine/threonine-protein kinase Nek7 (Homo sapiens) (Q8TDX7 whole entry, looked up): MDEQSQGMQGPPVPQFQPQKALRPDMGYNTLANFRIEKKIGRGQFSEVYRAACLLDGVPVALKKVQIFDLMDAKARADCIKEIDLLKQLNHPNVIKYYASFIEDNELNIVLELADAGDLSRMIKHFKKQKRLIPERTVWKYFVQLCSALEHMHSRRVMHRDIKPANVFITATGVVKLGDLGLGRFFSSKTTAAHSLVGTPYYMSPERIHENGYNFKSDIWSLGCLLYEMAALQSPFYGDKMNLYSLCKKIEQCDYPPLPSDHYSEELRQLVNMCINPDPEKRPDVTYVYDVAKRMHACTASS
The target in experiment [10] is Serine/threonine-protein kinase PAK 5 (Homo sapiens) (UniProt Q9P286). In words: Residual activity of human PAK5 using RRRLSFAEPG as substrate at 1 uM in presence of 32P-ATP by Hotspot assay relative to control.
Sequence of Serine/threonine-protein kinase PAK 5 (Homo sapiens) (Q9P286 whole entry, looked up): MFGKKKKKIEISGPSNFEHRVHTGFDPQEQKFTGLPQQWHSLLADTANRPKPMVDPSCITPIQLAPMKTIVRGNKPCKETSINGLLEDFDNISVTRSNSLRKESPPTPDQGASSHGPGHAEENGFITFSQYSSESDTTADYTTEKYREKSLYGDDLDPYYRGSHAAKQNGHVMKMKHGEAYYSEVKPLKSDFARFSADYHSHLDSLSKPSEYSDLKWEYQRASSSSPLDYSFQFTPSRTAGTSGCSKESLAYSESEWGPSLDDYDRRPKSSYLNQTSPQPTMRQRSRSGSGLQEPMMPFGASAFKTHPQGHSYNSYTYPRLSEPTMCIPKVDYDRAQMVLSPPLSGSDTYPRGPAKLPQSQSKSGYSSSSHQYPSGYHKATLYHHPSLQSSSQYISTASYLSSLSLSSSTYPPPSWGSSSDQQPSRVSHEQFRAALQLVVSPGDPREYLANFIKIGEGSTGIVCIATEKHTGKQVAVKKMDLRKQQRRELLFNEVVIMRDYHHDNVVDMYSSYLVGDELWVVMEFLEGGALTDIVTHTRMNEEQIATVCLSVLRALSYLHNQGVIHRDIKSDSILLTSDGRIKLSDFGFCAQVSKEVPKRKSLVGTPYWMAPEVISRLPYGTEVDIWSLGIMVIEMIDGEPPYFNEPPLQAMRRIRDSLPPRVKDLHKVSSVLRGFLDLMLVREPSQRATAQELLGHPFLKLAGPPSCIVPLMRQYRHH
Experiment [11] concerns the target T2, NUAK family SNF1-like kinase 1 (Homo sapiens) (UniProt O60285).
T2 sequence (whole entry): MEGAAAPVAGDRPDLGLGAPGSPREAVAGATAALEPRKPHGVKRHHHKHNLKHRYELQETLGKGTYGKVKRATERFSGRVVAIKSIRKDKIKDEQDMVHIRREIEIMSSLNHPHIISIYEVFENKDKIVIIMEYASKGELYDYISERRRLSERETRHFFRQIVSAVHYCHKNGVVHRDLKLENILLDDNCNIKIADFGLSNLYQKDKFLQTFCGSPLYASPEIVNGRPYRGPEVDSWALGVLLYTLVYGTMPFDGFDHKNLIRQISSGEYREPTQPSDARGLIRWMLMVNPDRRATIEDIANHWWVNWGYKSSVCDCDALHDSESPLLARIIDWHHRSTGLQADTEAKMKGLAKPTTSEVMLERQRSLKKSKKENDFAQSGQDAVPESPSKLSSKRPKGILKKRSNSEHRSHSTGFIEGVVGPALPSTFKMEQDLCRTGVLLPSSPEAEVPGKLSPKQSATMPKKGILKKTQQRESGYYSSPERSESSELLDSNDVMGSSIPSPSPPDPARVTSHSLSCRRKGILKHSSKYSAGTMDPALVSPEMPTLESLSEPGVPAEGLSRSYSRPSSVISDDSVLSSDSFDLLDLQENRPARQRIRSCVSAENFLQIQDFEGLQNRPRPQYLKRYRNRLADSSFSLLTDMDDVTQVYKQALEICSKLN
As to the kind of experiment: Inhibition of human ARK5/NUAK1 using KKKVSRSGLYRSPSMPENLNRPR as substrate at 1 uM in presence of 32P-ATP by Hotspot assay relative to control; values are per cent of control.

Sequence of Mitogen-activated protein kinase 1 (Homo sapiens) (P28482 whole entry): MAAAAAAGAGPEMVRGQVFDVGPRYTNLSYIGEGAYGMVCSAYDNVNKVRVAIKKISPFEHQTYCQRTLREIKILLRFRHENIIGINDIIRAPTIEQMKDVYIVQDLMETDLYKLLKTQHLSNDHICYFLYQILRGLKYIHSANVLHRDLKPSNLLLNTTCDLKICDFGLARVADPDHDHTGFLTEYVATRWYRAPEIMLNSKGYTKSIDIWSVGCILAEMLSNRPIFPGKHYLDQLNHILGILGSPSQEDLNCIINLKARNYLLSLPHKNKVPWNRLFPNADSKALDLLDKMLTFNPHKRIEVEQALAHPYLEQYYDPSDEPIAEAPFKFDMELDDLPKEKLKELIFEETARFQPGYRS
Sequence of Serine/threonine-protein kinase PAK 4 (Homo sapiens) (O96013 whole entry, looked up): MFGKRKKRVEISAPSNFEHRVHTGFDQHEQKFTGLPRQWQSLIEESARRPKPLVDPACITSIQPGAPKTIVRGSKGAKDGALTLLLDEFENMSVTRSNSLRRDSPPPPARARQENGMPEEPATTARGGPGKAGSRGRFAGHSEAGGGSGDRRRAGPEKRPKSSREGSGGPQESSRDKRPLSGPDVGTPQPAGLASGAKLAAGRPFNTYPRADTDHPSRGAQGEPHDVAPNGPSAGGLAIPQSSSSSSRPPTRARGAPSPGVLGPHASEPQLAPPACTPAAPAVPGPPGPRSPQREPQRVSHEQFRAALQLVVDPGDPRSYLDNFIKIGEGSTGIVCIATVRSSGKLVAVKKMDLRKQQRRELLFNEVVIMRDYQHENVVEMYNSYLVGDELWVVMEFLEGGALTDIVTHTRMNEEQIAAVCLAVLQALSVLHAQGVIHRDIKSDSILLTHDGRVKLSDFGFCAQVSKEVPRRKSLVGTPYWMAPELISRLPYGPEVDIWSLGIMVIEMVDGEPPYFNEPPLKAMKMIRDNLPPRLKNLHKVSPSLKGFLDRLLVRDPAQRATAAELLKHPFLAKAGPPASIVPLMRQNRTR
Sequence of Serine/threonine-protein kinase pim-1 (Homo sapiens) (P11309 whole entry, looked up): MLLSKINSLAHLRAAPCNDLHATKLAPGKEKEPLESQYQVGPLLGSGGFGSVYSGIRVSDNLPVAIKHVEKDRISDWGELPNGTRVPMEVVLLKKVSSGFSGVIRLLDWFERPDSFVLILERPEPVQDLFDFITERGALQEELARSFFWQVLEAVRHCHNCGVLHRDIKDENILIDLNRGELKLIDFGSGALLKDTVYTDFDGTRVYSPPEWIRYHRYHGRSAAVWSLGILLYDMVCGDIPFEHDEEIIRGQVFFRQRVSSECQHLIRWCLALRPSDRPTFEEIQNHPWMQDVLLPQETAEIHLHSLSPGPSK

As for `CC(C)S(=O)(=O)c1ccc2nccc(Nc3ccc4scnc4c3)c2c1`, the residual activity came out at 96.4% in [1]; 100% in experiment [2]; 99% in [3]; 94.6% in experiment [4]; 94.8% in experiment [5]; 63.3% in [6]. Also, the residual activity in experiment [7] came to 98.1%; in [8], 95.5%; in [9], 95.6%; in experiment [10] it was 105%; in [11], 98.4%.
With `CNC(=O)c1ccc2c(c1)ncn2-c1ccc(CC(=O)OC(C)(C)C)cc1`, the residual activity in experiment [1] worked out at 98.5%; in experiment [2], 98.4%; in experiment [3] it was 99.6%; in experiment [4] it was 99.8%; in [5], 94.7%; in experiment [6] it was 56.4%. Further, the residual activity in [7] came out at 103%; in experiment [8], 96.4%; in experiment [9] it was 91.5%; in experiment [10], 95.7%; in [11], 91.7%.
On to `Cc1cc(-c2cnc(N)c3c(-c4ccc5scnc5c4)csc23)n(C)n1`, for which the residual activity stood at 98.4% in experiment [1]; 99.5% in experiment [2]; 100% in [3]; 109% in experiment [4]; 76.8% in [5]; 59.1% in experiment [6]. The residual activity stood at 105% in experiment [7]; 105% in experiment [8]; 94.9% in [9]; 99.5% in experiment [10]; 98.5% in experiment [11].
